Values joined by “and” are separate entries in the source; they are usually repeats but may differ in a detail not shown here. Identical values can stand only once. Like-named read-outs stand apart in the source and are kept apart here.
How the values were obtained:
MDA-MB-435S = assay: Cell viability assay (CellTiter Glo), melanoma cell line MDA-MB-435S; type: cell-based; conditions: Homo sapiens, 96 hours
Protocol: (§1) Cell viability assay was performed to assess the potency of the compounds in human cancer cell lines KP4 (pancreatic ductal adenocarcinoma), MiaPaCa-2 (pancreatic carcinoma), AsPC-1 (pancreatic adenocarcinoma, ascites), 143B (osteosarcoma), and SJSA-1 (osteosarcoma). Selected compounds were also assayed in a human breast epithelial cell line MCF-10A, a nontumorigenic cell line as a control to assess differential activity. Cells at a density of 500-5,000 cells/well were seeded in 96-well plates and incubated at 37° C. overnight. A series of 9 different concentrations of compound stocks (500×) were created by 3-fold serial dilution in DMSO. These compounds were further diluted in culture media and then added to cells so that the final DMSO concentration was equal to 0.25% or less. After 96 hours of incubation, 50 μL of CellTiter Glo reagent (Promega) was added to each well and luminescence was measured after 10 minutes using EnVision (PerkinElmer). Compounds titrated from top concentration of up to 30 μM. The select compounds were tested initially from 30 μM as the top concentration in duplicates (range of 4.6 nM-30 μM). […] Luminescence from cells treated with DMSO alone was set as Max and % of inhibition was calculated as follows: Inhibition %=(Max-Sample value)/Max*100. Data was analyzed using XL-fit software (ID Business Solutions Ltd.). IC50, relative IC50, or % of top inhibition was calculated.
(§2) A group of selected analogs were further profiled in cell viability assays described above in multiple additional cancer cell lines, including lung cancer, melanoma, hepatocarcinoma, pancreatic cancer, leukemia, lymphoma, ovarian cancer, breast cancer, colon cancer, and sarcoma cell lines. Initial cell seeding numbers were adjusted for each cell line. Typically, 500-5000 cells/well for adherent cells and 5000-10000/well for suspension cells were seeded in 96-well plates.

Raji = assay: Cell viability assay (CellTiter Glo), lymphoma cell line Raji; type: cell-based; conditions: Homo sapiens, 96 hours
Protocol: as §1, §2

PANC1 = assay: Cell viability assay (CellTiter Glo), pancreatic cell line PANC1; type: cell-based; conditions: Homo sapiens, PANC-1, 96 hours
Protocol: as §1, §2
(§3) The results of the assay in the pancreatic cell lines are given in Table 15a for PANC1, Table 15b for MiaPaCa-2, and Table 15c for AsPC-1.

Huh7 = assay: Cell viability assay (CellTiter Glo), hepatocellular carcinoma Huh7; type: cell-based; conditions: Homo sapiens, Huh-7, 96 hours
Protocol: as §1, §2

H2228 = assay: Cell viability assay (CellTiter Glo), lung cancer cell line H2228; type: cell-based; conditions: Homo sapiens, NCI-H2228
Protocol: as §1, §2

SK-OV-3 = assay: Cell viability assay (CellTiter Glo), ovarian cancer cell line SK-OV-3; type: cell-based; conditions: Homo sapiens, 96 hours
Protocol: as §1, §2

SJSA-1 = assay: Cell viability assay (CellTiter Glo), osteosarcoma SJSA-1; type: cell-based; conditions: Homo sapiens, 96 hours
Outline: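 Cells seeded at 500-5,000/well overnight, then 96 h exposure to 9-point 3-fold dilutions from up to 30 μM (4.6 nM-30 μM), final DMSO ≤0.25%. Viability by CellTiter Glo luminescence; inhibition relative to DMSO-only cells, yielding IC50, relative IC50 or % top inhibition.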

MCF-10A = assay: Cell viability assay (CellTiter Glo), non-tumorigenic breast epithelial cell line MCF-10A; type: cell-based; conditions: Homo sapiens, 96 hours
Outline: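 MCF-10A cells (500-5,000/well) treated 96 h at 37° C with 9-point 3-fold dilutions from up to 30 μM, ≤0.25% DMSO, in duplicate. Viability by CellTiter Glo luminescence; % inhibition versus DMSO-only wells gave IC50, relative IC50 or % top inhibition. Paclitaxel positive control.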

H1299 = assay: Cell viability assay (CellTiter Glo), lung cancer cell line H1299; type: cell-based; conditions: Homo sapiens, NCI-H1299, 96 hours
Protocol: as §1, §2

HT29 = assay: Cell viability assay (CellTiter Glo), colon cancer cell line HT29; type: cell-based; conditions: Homo sapiens, HT-29, 96 hours
Protocol: as §1, §2

Kasumi-1 = assay: Cell viability assay (CellTiter Glo), leukemia cell line Kasumi-1; type: cell-based; conditions: Homo sapiens, 96 hours
Protocol: as §1, §2
(§4) The results of the assay in the leukemia cell lines are given in Table 16a for MV-4-1 and Table 16b for HL-60 and Kasumi-1.

AsPC-1 = assay: Cell viability assay (CellTiter Glo), pancreatic adenocarcinoma AsPC-1; type: cell-based; conditions: Homo sapiens, ASPC1
Protocol: as §1, §3

HCC1954 = assay: Cell viability assay (CellTiter Glo), breast cancer cell line HCC1954; type: cell-based; conditions: Homo sapiens, 96 hours
Protocol: as §1, §2

REC-1 = assay: Cell viability assay (CellTiter Glo), lymphoma cell line REC-1; type: cell-based; conditions: Homo sapiens, Rec1, 96 hours
Protocol: as §1, §2

MiaPaCa-2 = assay: Cell viability assay (CellTiter Glo), pancreatic carcinoma MiaPaCa-2; type: cell-based; conditions: Homo sapiens
Outline: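 MiaPaCa-2 and AsPC-1 cells were seeded overnight at 37 °C and exposed for 96 h to 9-point, 3-fold dilutions from up to 30 μM (final DMSO ≤0.25%). CellTiter Glo luminescence was read, and inhibition was calculated relative to DMSO-only cells. IC50, relative IC50 or % top inhibition was derived.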

SW480 = assay: Cell viability assay (CellTiter Glo), colon cancer cell line SW480; type: cell-based; conditions: Homo sapiens, 96 hours
Protocol: as §1, §2

MV-4-1 = assay: Cell viability assay (CellTiter Glo), leukemia cell line MV-4-1; type: cell-based; conditions: 96 hours
Protocol: as §1, §2, §4

HL-60 = assay: Cell viability assay (CellTiter Glo), leukemia cell line HL-60; type: cell-based; conditions: Homo sapiens, 96 hours
Protocol: as §1, §2, §4

HT-1080 luc2 = assay: Cell viability assay (CellTiter Glo), fibrosarcoma HT-1080 luc2; type: cell-based; conditions: Homo sapiens, fibrosarcoma expressing a luciferase gene, 96 hours, CellTiter Glo, read-out: IC50 HT-1080 luc2
Protocol: as §1, §2
(§5) The results of the assay in sarcoma cell lines are given in Table 21a for HT-1080 luc2 (fibrosarcoma expressing a luciferase gene), Table 21b for 143B (osteosarcoma), and Table 21c for SJSA-1 (osteosarcoma).

143B = assay: Cell viability assay (CellTiter Glo), osteosarcoma 143B; type: cell-based; conditions: Homo sapiens
Protocol: as §1, §5

[1] = Pharmacokinetic (PK) studies in Balb/C nude mice via intraperitoneal injection; conditions: plasma; for concentration at 0.5 h / concentration at 4 h: Calculated Concentration; for concentration at 0.5 h / concentration at 4 h / Calculated Concentration: IP 15 mg/kg, Balb/C nude mice
Protocol: Test compounds were dissolved either in 20% (w/w) sulfobutylether-β-cyclodextrin (SBECD) pH 3-7 aqueous solution, or 5% DMSO/(30-50%) PEG400/(65-45%) water. Test compound dosing solutions were administered intraperitoneally to Balb/c nude male mice. Blood samples were collected at various time points with EDTA-K2 as anti-coagulant on ice, and centrifuged to obtain plasma samples. The plasma samples were stored at −20° C. until analysis.
Into 10 μL of test compound plasma samples were added 2 μL DMSO then 200 μL of 5 ng/mL internal standard (VTSD) (Terfenadine) in MeOH/acetonitrile. The mixture was vortexed for 1 minute and centrifuged at 4000 rpm for 15 minutes. Calibration standards were prepared by spiking known amount of test compounds into blank plasma samples. The supernatant solution was diluted 5 times with Acetonitrile/H2O (with 0.1% formic acid, 1:1, v/v), and this is the solution for LC-MS/MS analysis. The limit of quantification (LOQ) was 1 ng/mL.
Typical HPLC mobile phases were mobile phase of 5 mM NH4OAc (with 0.05% formic acid); and mobile phase B of acetonitrile (with 0.1% formic acid). The HPLC column was Kinetex C18 (30 mm×3.00 mm). Mass spectrometer was tuned for each compound in the Multiple Reaction Monitoring (MRM) scanning mode and in the electrospray ionization mode. The lower limit of quantification was 1-10 ng.
In this study, K601 (RSL3) was formulated in 5% DMSO/30% PEG 400/65% water at 1.5 mg/mL. The volume of injection via intraperitoneal route was 10 mL/kg for a dose of 15 mg/kg. […] The limit of quantification (LOQ) was 1 ng/mL.
In this study, the compound was formulated in 20% (w/w) sulfobutylether-β-cyclodextrin (SBECD), pH 5 aqueous solution at 1.5 mg/mL. The volume of injection via intraperitoneal route was 10 mL/kg for a dose of 15 mg/kg. The concentration of test compounds in plasma were analyzed by LC-MS with the method described above. The limit of quantification was 1 ng/mL.
It was formulated in 5% DMSO/50% PEG400/45% Water pH adjusted to 4 with HCl as an aqueous solution at 1.0 mg/mL. The volume of injection via intraperitoneal route was 15 mL/kg for a dose of 15 mg/kg. The concentration of test compounds in plasma were analyzed by LC-MS with the method described above. The limit of quantification was 1 ng/mL. […] The limit of quantification was 1 ng/mL.
Compounds 24 and 28 were formulated in 20% (w/w) sulfobutylether-β-cyclodextrin (SBECD) with pH 3 and pH 4, respectively, as an aqueous solution at 1.0 mg/mL. Compound 67 was in 5% DMSO/50% PEG 400/45% water pH 4 (adjusted with 12 N HCl) aqueous solution at 1.0 mg/mL. The injection volume via intraperitoneal route was 10 mL/kg for a dose of 15 mg/kg. The concentration of test compounds in plasma were analyzed by LC-MS with the method described above. The limit of quantification was 1 ng/mL.

HPAC = assay: Cell proliferation assay, pancreatic cancer cell line HPAC; type: cell-based; conditions: Homo sapiens
Protocol: (§6) Cell viability assay was performed to assess the potency of the compounds in human cancer cell lines 786-O (renal cell carcinoma) and SJSA-1 (osteosarcoma). Additional cell lines, such as those described above in Example 4 as well as various others, e.g., pancreatic cancer cell lines (Panc 02.13, BxPC-3, Panc 12, Panc 02.03, Panc 6.03, PSN-1, HPAC, and Capan-1) and prostate cancer cell lines (PC-3, DU145, 22Rv1, NCI-H660, BPH1, LNCaP, BM-1604, and MDA PCa 2b), were tested for select compounds as shown in Table 25.
(§7) The cell proliferation assays for the compounds shown Table 25 was performed according to the protocols described herein, including Examples 4 and 6.

Panc 6.03 = assay: Cell proliferation assay, pancreatic cancer cell line Panc 6.03; type: cell-based
Protocol: as §6, §7

Panc 02.03 = assay: Cell proliferation assay, pancreatic cancer cell line Panc 02.03; type: cell-based; conditions: Homo sapiens
Protocol: as §6, §7

Panc 12 = assay: Cell proliferation assay, pancreatic cancer cell line Panc 12; type: cell-based; conditions: Cell Line Panc 12
Protocol: as §6, §7

Panc 02.13 = assay: Cell proliferation assay, pancreatic cancer cell line Panc 02.13; type: cell-based
Protocol: as §6, §7

KP4 = assay: Cell viability assay (CellTiter Glo), pancreatic ductal adenocarcinoma KP4; type: cell-based, human; conditions: Homo sapiens, KP-4, Cell Line KP4; read-out: IC50
Outline: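 KP4 cells seeded at 1,000–10,000 per well, treated 96 h with 9-point 3-fold dilutions from 30 μM top (4.6 nM–30 μM, duplicates; ≤0.25% DMSO). Viability by CellTiter Glo luminescence; % inhibition relative to DMSO-only wells, giving IC50, relative IC50 or % top inhibition.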

BxPC-3 = assay: Cell proliferation assay, pancreatic cancer cell line BxPC-3; type: cell-based; conditions: Homo sapiens
Protocol: as §6, §7

Capan-1 = assay: Cell proliferation assay, pancreatic cancer cell line Capan-1; type: cell-based; conditions: Homo sapiens
Protocol: as §6, §7

PSN-1 = assay: Cell proliferation assay, pancreatic cancer cell line PSN-1; type: cell-based; conditions: Homo sapiens, PSN1
Protocol: as §6, §7

[2] = lung cancer cell line, 96 hours, CellTiter Glo, read-out: IC50 H2228
[3] = pancreatic adenocarcinoma, ascites, 96 hours, CellTiter Glo, read-out: IC50 AsPC-1
[4] = MIA PaCa-2, pancreatic carcinoma, 96 hours, CellTiter Glo, read-out: IC50 MiaPaCa-2
[5] = male, Balb/c nude, mouse, ip, 15 mg/kg

IC50 (MDA-MB-435S) | IC50 (Raji) | IC50 (PANC1) | IC50 (Huh7) | IC50 (H2228; [2]) | IC50 (SK-OV-3) | IC50 (SJSA-1) | IC50 (H1299) | IC50 (HT29) | IC50 (Kasumi-1) | IC50 (AsPC-1; [3]) | IC50 (HCC1954) | IC50 (REC-1) | IC50 (MiaPaCa-2; [4]) | IC50 (SW480) | IC50 (MV-4-1) | IC50 (HL-60) | IC50 (HT-1080 luc2) | Structure (SMILES) | IC50 (MCF-10A) | further results
0.006 µM | 0.009 µM | 0.027 µM | 0.013 µM | 0.032 µM | 0.012 µM | 0.014 µM | 0.005 µM | 0.049 µM | 0.028 µM | 0.023 µM | 0.038 µM | 0.027 µM | 0.033 µM | 2 µM | 0.048 µM | 0.031 µM | 0.005 µM | COC(=O)[C@H]1Cc2c([nH]c3ccccc23)[C@H](c2ccc(N[C@]34CC5C[C@H](C[C@H](C5)C3)C4)cc2)N1C(=O)CCl [Example 29] | 0.41 µM | 
0.037 µM | 0.092 µM | 0.116 µM | 0.242 µM | 0.075 µM | 0.142 µM | 0.067 µM | 0.035 µM | 0.832 µM | 0.203 µM | 0.105 µM | 0.18 µM | 0.227 µM | 0.015 µM | 0.619 µM | 0.258 µM | 0.104 µM | 0.027 µM | COC(=O)c1ccc([C@H]2c3[nH]c4ccccc4c3C[C@H](C(=O)OC)N2C(=O)CCl)cc1 [Example K601, RSL3, reference compound] | 2.95 µM | IC50 (143B; 96 h, osteosarcoma, 96 hours, CellTiter Glo, read-out: IC50 143B): 0.032 µM; AUC [1, 5]: 1.28 ng·h/mL; AUC(0-t) [1, 5]: 1.28 ng·h/mL; Cmax [1, 5]: 1.33 ng/mL; Tmax [1, 5]: 1.67 h; concentration at 0.5 h ([1]; male, Balb/c nude, mouse, ip, 15 mg/kg, 0.5 h, individual mice): 1.18 ng/mL; concentration at 4 h ([1]; male, Balb/c nude, mouse, ip, 15 mg/kg, 4 h, individual mice): 1.63 ng/mL; concentration at 0.5 h ([1]; male, Balb/c nude, mouse, ip, 15 mg/kg, Mean, 0.5 h, mean of 3 mice): 0.783 ng/mL; concentration at 4 h ([1]; male, Balb/c nude, mouse, ip, 15 mg/kg, Mean, 4 h, mean of 3 mice): 0.543 ng/mL; Calculated Concentration ([1]; 0.5 h, individual mice, 15 mg/kg): BLOQ (BLOQ = Below limit of quantification (which was 1 ng/mL)) and 1.17 ng/mL; Calculated Concentration ([1]; 1 h, individual mice): BLOQ (BLOQ = Below limit of quantification (which was 1 ng/mL)); Calculated Concentration ([1]; 2 h, individual mice): BLOQ (BLOQ = Below limit of quantification (which was 1 ng/mL)); Calculated Concentration ([1]; 4 h, individual mice, 15 mg/kg): BLOQ (BLOQ = Below limit of quantification (which was 1 ng/mL))
 |  |  |  |  |  |  |  |  |  |  |  |  |  |  |  |  |  | C[C@H]1Cc2c([nH]c3ccccc23)[C@H](c2ccc(N3CCC3)cc2)N1C(=O)CCl [Compound 239] |  | IC50 (HPAC): 0.321 µM; IC50 (H2228; Cell Line H2228, read-out: IC50): 0.0146 µM; IC50 (Panc 6.03): 0.166 µM; IC50 (Panc 02.03): 0.394 µM; IC50 (143B; Cell Line 143B, read-out: IC50): 1.12 µM; IC50 (Panc 12): 0.0578 µM; IC50 (Panc 02.13): 1.11 µM; IC50 (KP4): 0.004 µM; IC50 (AsPC-1; Cell Line AsPC-1, read-out: IC50): 0.0652 µM; IC50 (BxPC-3): 0.91 µM; IC50 (MiaPaCa-2; Cell Line Mia PaCa-2, read-out: IC50): 0.259 µM; IC50 (Capan-1): > 1 µM; IC50 (PSN-1): 0.183 µM

Source: US11098040B2, “Compounds and methods of use” (Ferro Therapeutics, Inc., priority 2018, dated 2021)
